Data published in patent US20120302530A1, “23-HYDROXY-BETULINIC ACID DERIVATIVES, PREPARATION METHODS AND USES THEREOF” (priority 2009, published 2012).
Where two headings read alike, the source gives them in different places.

Tests used:
Format in all cases: cell-based
HT29 = test: MTT cytotoxicity, human tumor cell strain; conditions: HT-29, HT29, Colon, 72 hours
Text: (§1) We use human tumor cell lines to conduct cytotoxicity analysis. Thirty-one (31) kinds of human tumor cell strains are cultivated in the normal culture medium containing various compounds of zhangnan-5, zhangnan-7 and zhangnan-8. The human tumor lines are bought from ATCC and NCI, and is cultivated with DMEM culture solution containing 10% FBS in 370C couveuse containing 5% CO2. The merged cells are digested by trypsinase, and are counted after washed by the culture solution. 3000˜6000 cells are added into each hole of the 96-hole culture plate, and are hatched for 16 hours or 24 hours. Then, compounds zhangnan-5, zhangnan-7 and zhangnan-8 with different concentrations are added into the holes. Upon further cultivated for another 72 hours, MTT tests are conducted to cells in group treated with drugs and the control group cells, to determine the survival condition of the cells.

786-O = test: MTT cytotoxicity, human tumor cell strain; conditions: 786-0, Kidney, 72 hours
Text: as §1

ACHN = test: MTT cytotoxicity, human tumor cell strain; conditions: Kidney, 72 hours
Text: as §1

IGROV1 = test: MTT cytotoxicity, human tumor cell strain; conditions: IGROV-1, IGROV1, Ovary, 72 hours
Text: as §1

CCL-247 = test: MTT cytotoxicity, human tumor cell strain; conditions: CCL-247, Colo, 72 hours
Text: as §1

SK-MEL-5 = test: MTT cytotoxicity, human tumor cell strain; conditions: SK-MEL-5, Skin (melanoma), 72 hours
Text: as §1

U-251 = test: MTT cytotoxicity, human tumor cell strain; conditions: U-251, Malignant Glioma, 72 hours
Text: as §1

HCT-116 = test: MTT cytotoxicity, human tumor cell strain; conditions: HCT-116, Colon, 72 hours
Text: as §1

SKOV3 = test: MTT cytotoxicity, human tumor cell strain; conditions: SK-OV-3, SKOV3, Ovary, 72 hours
Text: as §1

Jurkat = test: MTT cytotoxicity, human tumor cell strain; conditions: Leukemia T Cell, 72 hours
Text: as §1

Raji = test: MTT cytotoxicity, human tumor cell strain; conditions: Lymphoma, 72 hours
Text: as §1

D145 = test: MTT cytotoxicity, human tumor cell strain; conditions: D145, Prostate, 72 hours
Text: as §1

CNE-2Z = test: MTT cytotoxicity, human tumor cell strain; conditions: CNE2Z, Nasopharynx, 72 hours
Text: as §1

LnCAP = test: MTT cytotoxicity, human tumor cell strain; conditions: Prostate, 72 hours
Text: as §1

EC109 = test: MTT cytotoxicity, human tumor cell strain; conditions: ECa-109, EC109, Esophagus, 72 hours
Text: as §1

G-361 = test: MTT cytotoxicity, human tumor cell strain; conditions: G-361, Skin (melanoma), 72 hours
Text: as §1

PC3 = test: MTT cytotoxicity, human tumor cell strain; conditions: PC-3, PC3, Prostate, 72 hours
Text: as §1

A549 = test: MTT cytotoxicity, human tumor cell strain; conditions: A549, Lung, 72 hours
Text: as §1

MCF-7 = test: MTT cytotoxicity, human tumor cell strain; conditions: MCF7, MCF-7, Mammary Gland, 72 hours
Text: as §1

Widr = test: MTT cytotoxicity, human tumor cell strain; conditions: Colon, 72 hours
Text: as §1

SGC-7901 = test: MTT cytotoxicity, human tumor cell strain; conditions: SGC-7901, Stomach, 72 hours
Text: as §1

MDA-MB-231 = test: MTT cytotoxicity, human tumor cell strain; conditions: MDA-MB-231, Mammary Gland, 72 hours
Text: as §1

MDA-MB-435 = test: MTT cytotoxicity, human tumor cell strain; conditions: MDA-MB-435, Mammary Gland, 72 hours
Text: as §1

AU-565 = test: MTT cytotoxicity, human tumor cell strain; conditions: AU565, AU-565, Mammary Gland, 72 hours
Text: as §1

CCL-225 = test: MTT cytotoxicity, human tumor cell strain; conditions: CCL-225, Colon, 72 hours
Text: as §1

BT-549 = test: MTT cytotoxicity, human tumor cell strain; conditions: BT-549, Mammary Gland, 72 hours
Text: as §1

SN12C = test: MTT cytotoxicity, human tumor cell strain; conditions: Kidney, 72 hours
Text: as §1

Caki-1 = test: MTT cytotoxicity, human tumor cell strain; conditions: Caki-1, Kidney, 72 hours
Text: as §1

LoVo = test: MTT cytotoxicity, human tumor cell strain; conditions: Colon, 72 hours
Text: as §1

Mid PaCa-2 = test: MTT cytotoxicity, human tumor cell strain; conditions: Mid PaCa-2, Pancreatic Gland, 72 hours
Text: as §1

NCI-H23 = test: MTT cytotoxicity, human tumor cell strain; conditions: NCI-H23, Lung, 72 hours
Text: as §1

[1] = system: C8166 (human T cell line); test: Toxicity to C8166 cells (MTT, day 7); conditions: Homo sapiens, read-out: IC50 (50% inhibition concentration) to C8166 cell
Experimental: (2) Toxicity of compounds zhangnan-5, zhangnan-7 and zhangnan-8 to C8166 and PBMC cells:
C8166 (human T cell line) and PBM (using lymphocyte isolation liquid to separate from normal human peripheral blood, and adhered mononuclear cell separated from PBMC) cells in exponential phase are taken. The cells are resuspended after centrifugal (1000 r•min-1, 10 min), and the concentrations are adjusted to 4×10^5/ml and 2×10^6/ml. The test samples are double diluted on the 96-hole cell culture plate. In total 6 gradients are set, each having 3 duplicate holes. In addition, positive control group and cell control group are set. Upon adding cell suspended liquid, the test samples are placed in incubator of 370C and 5% CO2 for incubation. On the seventh (7th) day, MTT method is used to determine toxicity of the samples to cells.
Inhibition ratio of cell growth (%)=(1−experimental hole OD value/control hole (OD value)×100%

[2] = system: normal human epithelium of mammary gland (MCF-10a); test: MTT cytotoxicity, normal cell strain; conditions: for EC50: Homo sapiens, Normal Mammary Gland Epithelial Cell, 72 hours, MTT; for sensitivity of normal cells to the compounds: concentration up to 30 μm, cells can still grow well

SMILES	EC50 (HT29) [µM]	EC50 (786-O) [µM]	EC50 (ACHN) [µM]	EC50 (IGROV1) [µM]	EC50 (CCL-247) [µM]	EC50 (SK-MEL-5) [µM]	EC50 (U-251) [µM]	EC50 (HCT-116) [µM]	EC50 (SKOV3) [µM]	EC50 (Jurkat) [µM]	EC50 (Raji) [µM]	EC50 (D145) [µM]	EC50 (CNE-2Z) [µM]	EC50 (LnCAP) [µM]	EC50 (EC109) [µM]	EC50 (G-361) [µM]	EC50 (PC3) [µM]	EC50 (A549) [µM]	EC50 (MCF-7) [µM]	EC50 (Widr) [µM]	also measured
C=C(C)C1CCC2(C(=O)O)CCC3(C)C(CCC4C5(C)CCC(=O)C(C)(CO)C5CCC43C)C12 (stereo not drawn) [zhangnan-5]	0.47	3.1	1.2	2.1	0.52	0.093	0.089	0.09	1.5	0.14	0.098	0.85	1.3	0.69	0.78	0.087	0.91	0.54	0.58	0.28	EC50 (SGC-7901): 0.89 µM; EC50 (MDA-MB-231): 0.47 µM; EC50 (MDA-MB-435): 0.55 µM; EC50 (AU-565): 0.59 µM; EC50 (CCL-225): 0.23 µM; EC50 (BT-549): 0.67 µM; EC50 (SN12C): 1.3 µM; EC50 (Caki-1): 0.98 µM; EC50 (LoVo): 0.15 µM; EC50 (Mid PaCa-2): 0.93 µM; EC50 (NCI-H23): 0.32 µM; IC50 ([1]; C8166, 168 h): 2.3 ± 0.47 µM; EC50 [2]: > 30 µM; sensitivity of normal cells to the compounds [2]: not sensitive
CC(C)C1CCC2(C(=O)O)CCC3(C)C(CCC4C5(C)CCC(=O)C(C)(CO)C5CCC43C)C12 (stereo not drawn) [zhangnan-7]	13.9	16.8	18.3	17.4	15.6	18.5	17.8	15.1	16.9	21.3	20.5	14.8	19.2	15.6	17.9	19.3	16.2	13.1	16.9	14.8	EC50 (SGC-7901): 18.5 µM; EC50 (MDA-MB-231): 17.5 µM; EC50 (MDA-MB-435): 19.3 µM; EC50 (AU-565): 18.2 µM; EC50 (CCL-225): 16.1 µM; EC50 (BT-549): 17.4 µM; EC50 (SN12C): 17.5 µM; EC50 (Caki-1): 20.1 µM; EC50 (LoVo): 15.2 µM; EC50 (Mid PaCa-2): 18.9 µM; EC50 (NCI-H23): 12.8 µM; IC50 ([1]; 168 h, C8166, day 7, MTT): 25 ± 5.2 µM; EC50 [2]: > 30 µM; sensitivity of normal cells to the compounds [2]: not sensitive
CC(C)C1CCC2(C(=O)O)CCC3(C)C(CCC4C5(C)CCC(O)C(C)(CO)C5CCC43C)C12 (stereo not drawn) [zhangnan-8, 23-hydroxyl-dihydrobetulinic acid]	8.9	8.1	8.9	7.2	8.2	4.9	5.6	7.8	6.9	7.1	6.9	8.4	10.2	7.8	9.5	5.3	8.9	6.9	7.8	8.1	EC50 (SGC-7901): 8.9 µM; EC50 (MDA-MB-231): 7.2 µM; EC50 (MDA-MB-435): 7.9 µM; EC50 (AU-565): 6.8 µM; EC50 (CCL-225): 8.6 µM; EC50 (BT-549): 7.4 µM; EC50 (SN12C): 7.6 µM; EC50 (Caki-1): 9.2 µM; EC50 (LoVo): 9.6 µM; EC50 (Mid PaCa-2): 9.4 µM; EC50 (NCI-H23): 6.7 µM; IC50 ([1]; 168 h, C8166, day 7, MTT): 10.3 ± 2.9 µM; EC50 [2]: > 30 µM; sensitivity of normal cells to the compounds [2]: not sensitive
